# In article PMC12261233, “Photoactivatable Cyclometalated Ir(III) Compound Penetrates the Blood-Brain Barrier in 3D Spheroidal and Advanced 3D Organoid Models of Inherently Resistant and Aggressive Brain Tumors” (ACS Pharmacology & Translational Science, 2025):
# Tests used:
# Type in all cases: cell-based, human
# [1] = system: U87MG spheroids; assay: Distribution of iridium compounds in Matrigel-embedded spheroids (confocal); details: 5 μM, 3 h
# Protocol: Spheroids derived from U87MG cells were encapsulated in a Matrigel matrix. The U87MG cells were incubated for 72 h under 3D conditions using ULA 96-well U-shaped plates (Corning) and cultured in DMEM-F12 ham medium supplemented with growth factors conducive to spheroid formation: 2% B27 (Thermo Fisher Scientific Inc., MA, USA), epidermal growth factor (EGF; Sigma-Aldrich, Germany, 20 ng mL^–1), fibroblast growth factor (FGF2; Sigma-Aldrich, Germany, 10 ng mL^–1), and BSA (0.15%). Following the 72-h spheroid formation phase, the samples were embedded in a Matrigel matrix and allowed to gel completely (30 min). Afterward, the spheroids were further cultured for 24 h in confocal Petri dishes (Mattek) with 3D forming medium. Subsequently, the samples were exposed to 5 μM of the tested compounds 3, 4, and 5 for 3 h. The samples were then rinsed, transferred to a fresh 3D forming medium, and visualized using a confocal microscope (Leica CM SP8 SMD, Leica, Germany). Imaging was conducted in defined Z-stacks with a 20 μm step, and fluorescence intensities were captured and analyzed using ImageJ software.
# [2] = system: U87MG spheroids; assay: Calcein AM/PPI staining of Matrigel-embedded spheroids after single-spheroid 405 nm irradiation (confocal); details: for change in calcein AM/PPI ratio with blue light irradiation: 405 nm irradiated; for change in calcein AM/PPI ratio under dark conditions: versus control
# Protocol: Spheroids were treated with iridium complexes at IC50 concentrations (Table S4) for 3 h, followed by 405 nm laser irradiation for 60 s. After 24 h in a drug-free medium, spheroids were stained for analysis. Significant differences in live and dead cell counts were observed between irradiated and nonirradiated samples for Ir3 and Ir4, with morphological disruptions noted in treated spheroids, including reduced diameters and metabolically active cells concentrated in the core (Figure , panel III, inserts 2* and 4*).
# Matrigel-embedded spheroids were treated for 3 h with the investigated compounds at concentrations corresponding to the IC50 determined for 3D cultures. Then, the samples were irradiated for 60 s with 405 nm laser light (1 mW) and placed in a drug-free, 3D forming medium for an additional 21 h. Then, treated and irradiated (or dark incubated controls) were stained with Hoechst 33258 (20 μg mL^–1), Calcein AM (2 μM), and PPI (8 μg mL^–1) for 2 h. Samples were sequentially imaged on a confocal microscope Leica CM SP5 (Leica, Germany), in 10 z-stack scans (20 μm each). Images were processed using ImageJ software. Fluorescence intensities were assessed for the maximal projections of the z-stacks, and the corresponding Calcein AM/PPI ratio was calculated. Hoechst dye was used to accurately define the Region of Interest (ROI) mask and analyze fluorescence intensities. Three independent experiments were carried out to ensure the reliability and reproducibility of the results. The representative images are shown.
# [3] = system: hiPSC-derived cerebral organoids; assay: Cerebral organoid volume growth after treatment (healthy tissue); details: fusion system, untreated control 25%
# Protocol: To assess the treatment’s impact on healthy tissue, cerebral organoid volumes were measured using phase-contrast or bright-field confocal microscopy with manually defined regions of interest.
# [4] = system: U87MG-RFP spheroids implanted into cerebral organoids; assay: Glioblastoma intergrowth/spreading area in cerebral organoid-U87MG-RFP spheroid fusion system; details: for glioblastoma spreading area, Δ 0h-120h, not irradiated: TMZ 100 μM or Ir4 2 μM for 3 h, no blue light
# Protocol: In this study, U87MG-RFP glioblastoma spheroids were preformed over 72 h, implanted into cerebral organoid tissue, and coembedded in Matrigel. […] Samples designated for irradiation were exposed to blue laser light (405 nm, 60 s, 1 mW) and subsequently cultured in drug-free medium for 120 h. Z-stacking confocal imaging and ImageJ analysis quantified the area of glioblastoma spreading (Figure , panels III and IV).
# An implant fusion model was established to monitor the distribution of Ir4 within the tumor, represented by the implanted tumorspheres generated from U87MG, and healthy tissue, represented by the hiPSC-derived cerebral organoid. Before the implantation procedure, spheroids derived from U87MG glioblastoma were cultured for 72 h under 3D forming conditions using ULA plates (96-well U-shaped plate, Corning) in DMEM-F12 supplemented with 2% B27, epidermal growth factor (EGF) at 20 ng mL^–1, fibroblast growth factor 2 (FGF2) at 10 ng mL^–1, and BSA (0.15%). Cerebral organoids were generated through a four-step directed differentiation process from human induced pluripotent stem cells (hiPSCs, Gibco). The hiPSCs were cultured on Geltrex matrix (hESC-Qualified, Reduced Growth Factor Basement Membrane Matrix; Gibco) in StemFlex basal medium (DMEM/F12, Ham, 1:1) fully supplemented with StemFlex supplement (Gibco). The preformation of cerebral organoids, involving the formation of embryoid bodies (EBs), was maintained in U-shape ultralow attachment 96-well plates (ULA, Corning) with 9000 hiPSCs per well in fully supplemented Stemdiff Cerebral organoid medium and 10 μM of the rock inhibitor Y27632. The EBs were cultured for 4 days to establish round-shaped EBs with a diameter of approximately 400 μm. Subsequently, 2 EBs per well were transferred to 24-well ULA plates, and differentiation into neural ectoderm was induced for an additional 2 days using the Stemdiff Cerebral Organoid Kit (StemCell Technologies, CA). Following this, early organoids were embedded in the Matrigel matrix (suitable for organoid culture, Corning) and directed toward further differentiation into neuroectoderm. After the initial differentiation phase, early organoids were monitored for the development of optically clear neuroectoderm (characterized by an optically bright, translucent surface) and the formation of large buds of translucent ectoderm that were not radially organized. Postembedding, the organoids were cultured on 6-well ULA plates under continuous orbital shaker agitation (50 rpm). […] The samples were then transferred to confocal Petri dishes containing drug-free cerebral maturation medium and analyzed using a confocal microscope (Leica CM SP5, Leica, Germany). […]
structure (smiles),measurement,setting,value
Cc1ccc(-c2cc3[n+]4c(c2)-c2cccc[n+]2[Ir-3]42([Cl])([c]4cc5ccccc5cc4-c4n(Cc5ccc(C(F)(F)F)cc5)c5ccccc5[n+]42)[n+]2ccccc2-3)cc1.F[P-](F)(F)(F)(F)F [Ir3],distribution within spheroid,[1],primarily localized in the outer regions of the spheroids
same,change in calcein AM/PPI ratio with blue light irradiation,[2],substantial decrease
same,change in calcein AM/PPI ratio under dark conditions,[2],insignificant changes
CCCCn1c2[n+](c3cc(C(=O)OC)ccc31)[Ir-3]13([Cl])([c]4ccccc4-2)[n+]2ccccc2-c2cc(-c4ccc(C)cc4)cc([n+]21)-c1cccc[n+]13.F[P-](F)(F)(F)(F)F [Ir4],distribution within spheroid,[1],most uniform distribution
same,increase in cerebral organoid volume over 120 h,[3],24%
same,"glioblastoma spreading area, Δ 0h-120h, irradiated","[4]; Ir4 2 μM 3 h, 405 nm 60 s 1 mW, 120 h drug-free",0.6 fold
same,"glioblastoma spreading area, Δ 0h-120h, not irradiated",[4]; 120 h drug-free,2.1 fold
same,spreading area relative to TMZ,"[4]; nonirradiated, Ir4 concentration 50 times lower than TMZ",four times smaller
same,change in calcein AM/PPI ratio with blue light irradiation,[2],substantial decrease
same,change in calcein AM/PPI ratio under dark conditions,[2],significant decrease
Cc1ccc(-c2cc3[n+]4c(c2)-c2cccc[n+]2[Ir-3]42([Cl])([c]4c(ccc5c4OCO5)-c4n(Cc5ccc(C(F)(F)F)cc5)c5ccccc5[n+]42)[n+]2ccccc2-3)cc1.F[P-](F)(F)(F)(F)F [Ir5],distribution within spheroid,[1],primarily localized in the outer regions of the spheroids
same,change in calcein AM/PPI ratio with blue light irradiation,[2],substantial decrease
same,change in calcein AM/PPI ratio under dark conditions,[2],insignificant changes
"Cn1nnc2c(C(N)=O)ncn2c1=O [Temozolomide, reference compound]",increase in cerebral organoid volume over 120 h,[3],21%
same,"glioblastoma spreading area, Δ 0h-120h, not irradiated",[4]; 120 h drug-free,8.7 fold
